In patent US20010003744A1, “Therapeutic compounds” (priority 1994, published 2001):

Legend:
[1] = system: HCMV strain AD169; experiment: Human Cytomegalovirus (HCMV) assay, HCMV DNA hybridization; format: cell-based; details: HCMV strain AD169 on MRC5 cells, 5 days, HCMV DNA by blotting and hybridization
Description: (§1) HCMV strain AD169 was grown on monolayers of human embryonic lung cells (MRC5 cells) in 96 well plates. After infection of the cells at a ratio of approximately 0.01 infectious virus particles per cell, the compounds to be tested were added to selected wells at six different concentrations, each in triplicate. The same concentrations of compound were also applied to wells containing monolayers of uninfected cells in order to assess compound cytotoxicity. The plates were incubated for 5 days, and the minimum cytotoxic dose was estimated from microscopic examination. The IC50 for antiviral effect was estimated from measurements of HCMV DNA in each well by blotting and quantitive specific DNA hybridization, similar to the method of Gadler. (Antimicrob. Agents Chemother. 1983, 24, 370-374).

[2] = system: MRC5 cells; experiment: Compound cytotoxicity on uninfected MRC5 monolayers, microscopic examination; format: cell-based, human
Description: as §1

[3] = Compound cytotoxicity on uninfected MRC5 monolayers, microscopic examination; format: cell-based, human; details: human, uninfected MRC5 cell monolayers (human embryonic lung cells); uninfected MRC5 cells, 5 days, estimated from microscopic examination; read-out: MRC5 tox CC50
Description: as §1

Structure (SMILES)	melting point	further results
OC[C@@H]1O[C@H](n2c(N3CCC3)nc3cc(Cl)c(Cl)cc32)[C@@H](O)[C@H]1O [Example 8, 2-Azetidino-5,6-dichloro-1-(beta-L-ribofuranosyl)-1H-benzimidazole]		IC50 [1]: 41 µM; CC50 [2]: 100 µM
CCCNc1nc2cc(Cl)c(Cl)cc2n1[C@H]1O[C@@H](CO)[C@H](O)[C@@H]1O [Example 10, 5,6-Dichloro-2-(n-propylamino)-1-(beta-L-ribofuranosyl)-1H-benzimidazole]	231 to 233 °C	IC50 ([1]; Human betaherpesvirus 5, 120 h): 1.1 to 1.3 µM; CC50 at 5 days [3]: 100 µM
C=CCNc1nc2cc(Cl)c(Cl)cc2n1[C@H]1O[C@@H](CO)[C@H](O)[C@@H]1O [Example 4, 2-(Allylamino)-5,6-dichloro-1-(beta-L-ribofuranosyl)-1H-benzimidazole]	220 °C (dec.)	IC50 ([1]; Human betaherpesvirus 5, 120 h): 0.91 to 2.5 µM; CC50 at 5 days [3]: 100 µM
CC(C)CNc1nc2cc(Cl)c(Cl)cc2n1[C@H]1O[C@@H](CO)[C@H](O)[C@@H]1O [Example 11, 5,6-Dichloro-2-(isobutylamino)-1-(beta-L-ribofuranosyl)-1H-benzimidazole]	136 °C	
OC[C@@H]1O[C@H](n2c(Br)nc3cc(Cl)c(Cl)cc32)[C@@H](O)[C@H]1O [Example 2, 2-Bromo-5,6-dichloro-1-(beta-L-ribofuranosyl)-1H-benzimidazole]	169 °C	
OC[C@@H]1O[C@H](n2c(NC3CCCC3)nc3cc(Cl)c(Cl)cc32)[C@@H](O)[C@H]1O [Example 6, 2-(Cyclopentylamino)-5,6-dichloro-1-(beta-L-ribofuranosyl)-1H-benzimidazole]	140 °C	
CC(C)Nc1nc2cc(Cl)c(Cl)cc2n1[C@H]1O[C@@H](CO)[C@H](O)[C@@H]1O [Example 5, 5,6-Dichloro-2-(isopropylamino)-1-(beta-L-ribofuranosyl)-1H-benzimidazole]		IC50 ([1]; Human betaherpesvirus 5, 120 h): 0.03 to 0.05 µM; CC50 at 5 days [3]: 100 µM
OCCNc1nc2cc(Cl)c(Cl)cc2n1[C@H]1O[C@@H](CO)[C@H](O)[C@@H]1O [Example 12, 2-((5,6-Dichloro-1-(beta-L-ribofuranosyl)-1H-benzimidazol-2-yl)amino)ethanol]		IC50 ([1]; Human betaherpesvirus 5, 120 h): 3.5 to 5.8 µM; CC50 at 5 days [3]: 100 µM
C#CCNc1nc2cc(Cl)c(Cl)cc2n1[C@H]1O[C@@H](CO)[C@H](O)[C@@H]1O [Example 9, 5,6-Dichloro-2-(propargylamino)-1-(beta-L-ribofuranosyl)-1H-benzimidazole]	182 to 184 °C	
OC[C@@H]1O[C@H](n2c(NCc3ccccc3)nc3cc(Cl)c(Cl)cc32)[C@@H](O)[C@H]1O [Example 7, 2-(Benzylamino)-5,6-dichloro-1-(beta-L-ribofuranosyl)-1H-benzimidazole]	123 °C	
CCCCNc1nc2cc(Cl)c(Cl)cc2n1[C@H]1O[C@@H](CO)[C@H](O)[C@@H]1O [Example 18, 2-(n-Butylamino)-5,6-dichloro-1-(beta-L-ribofuranosyl)-1H-benzimidazole]	220 to 222 °C	
CC(=O)OC[C@@H]1O[C@H](n2c(Br)nc3cc(Cl)c(Cl)cc32)[C@@H](OC(C)=O)[C@H]1OC(C)=O [Example 1, 2-Bromo-5,6-dichloro-1-(2,3,5-tri-O-acetyl-beta-L-ribofuranosyl)-1H-benzimidazole]	< 65 °C	

More lines, main results first:

melting point	Structure (SMILES)	further results
121 to 122 °C	CCC(C)Nc1nc2cc(Cl)c(Cl)cc2n1[C@H]1O[C@@H](CO)[C@H](O)[C@@H]1O (stereo partly drawn) [Example 19, 2-(sec-Butylamino)-5,6-dichloro-1-(beta-L-ribofuranosyl)-1H-benzimidazole]	
219 to 221 °C	CC(C)(C)Nc1nc2cc(Cl)c(Cl)cc2[nH]1 [Example 26, 2-(tert-Butylamino)-5,6-dichloro-1H-benzimidazole]	
229 to 230 °C	OC[C@@H]1O[C@H](n2c(NCC3CC3)nc3cc(Cl)c(Cl)cc32)[C@@H](O)[C@H]1O [Example 23, 2-((Cyclopropylmethyl)amino)-5,6-dichloro-1-(beta-L-ribofuranosyl)-1H-benzimidazole]	
118 to 120 °C	CC(C)(C)Nc1nc2cc(Cl)c(Cl)cc2n1[C@H]1O[C@@H](CO)[C@H](O)[C@@H]1O [Example 24, 2-(tert-Butylamino)-5,6-dichloro-1-(beta-L-ribofuranosyl)-1H-benzimidazole]	
155 to 157 °C	CCNc1nc2cc(Cl)c(Cl)cc2n1[C@H]1O[C@@H](CO)[C@H](O)[C@@H]1O [Example 34, 5,6-Dichloro-2-(ethylamino)-1-(beta-L-ribofuranosyl)-1H-benzimidazole]	IC50 ([1]; Human betaherpesvirus 5, 120 h): 0.75 to 0.85 µM; CC50 at 5 days [3]: 100 µM
140 to 141 °C	OC[C@@H]1O[C@@H](n2c(NC3CC3)nc3cc(Cl)c(Cl)cc32)[C@@H](O)[C@H]1O [Example 35, 2-Cyclopropylamino-5,6-dichloro-1-(alpha-L-ribofuranosyl)-1H-benzimidazole]	
238 to 240 °C	CNc1nc2cc(Cl)c(Cl)cc2n1[C@H]1O[C@@H](CO)[C@H](O)[C@@H]1O [Example 33, 5,6-Dichloro-2-(methylamino)-1-(beta-L-ribofuranosyl)-1H-benzimidazole]	
220 to 221 °C	OC[C@@H]1O[C@H](n2c(NC3CCC3)nc3cc(Cl)c(Cl)cc32)[C@@H](O)[C@H]1O [Example 20, 2-(Cyclobutylamino)-5,6-dichloro-1-(beta-L-ribofuranosyl)-1H-benzimidazole]	
110 to 112 °C	Nc1nc2cc(Cl)c(Cl)cc2n1[C@H]1O[C@@H](CO)[C@H](O)[C@@H]1O [Example 27, 2-Amino-5,6-dichloro-1-(beta-L-ribofuranosyl)-1H-benzimidazole]	
123 to 124 °C	OC[C@@H]1O[C@H](n2c(NCCN3CCCC3)nc3cc(Cl)c(Cl)cc32)[C@@H](O)[C@H]1O [Example 22, 5,6-Dichloro-2-((2-(1-pyrrolidinyl)ethyl)amino)-1-(beta-L-ribofuranosyl)-1H-benzimidazole]	
